Experimental data taken from PMC10545747, “Development of cyclopeptide inhibitors of cGAS targeting protein-DNA interaction and phase separation” (Nature Communications, 2023).
Values after ≈ are worked out from the molar mass of the structure shown. Values joined by “and” are separate entries in the source; they are usually repeats but may differ in a detail not shown here. Equal values may be shown once. Square brackets hold non-standard residues; d marks the D form. Peptide text beside a SMILES is read from it.

Experiments:
[1] = tested on: HSV-1-infected THP1 cells; test: qPCR of IFNB1/CXCL10/IL6 mRNA in THP1 cells stimulated by HSV-1 infection; type: cell-based, human; details: HSV-1, XQ2B
in vitro = details: human, THP1 cells, Cell viability (Fig. S7a)
Procedure: (§1) Cell viability was measured by cell counting kit-8 (TargetMol) according to the manufacturer’s instructions.
(§2) Supplementary Fig. 2. […]
(§3) (e-g) THP1 cells (e), L929 cells (f) and RAW264.7 cells (g) were exposed to the indicated doses of XQ2 for 48h, the cell viability was measured by CCK8 assay. Data are representative of three independent experiments in (a-g). (Data are presented as mean ± SD, n = 3 independent samples in (a-g), **p < 0.01, ***p < 0.001, ****p < 0.0001 using one-way ANOVA with Dunnett’s post hoc test).
(§4) Source data are provided as a Source Data file. […]
(§5) Relative viability(%) XQ2B
(§6) Supplementary Fig. 7. […] (a) THP1 cells were exposed to the indicated doses of XQ2 or XQ2B for 48h. The cell viability was measured by CCK8 assay. […]
(§7) Data are representative of three independent experiments with similar results in (e), or three independent experiments in (a -d, f, g) . (Data are presented as mean ± SD, n = 3 independent samples in (a-d, f, g), ns, not significant, **p < 0.01, ***p < 0.001, ****p < 0.0001 using one-way ANOV A with Dunnett’s post hoc test). Source data are provided as a Source Data file.

THP1 cells = test: in vitro; details: for Cell viability (Fig. S7a): human, THP1 cells
Procedure: as §1, §2, §3, §4, §5, §6, §7

L929 cells = test: ISD-induced autophagy, LC3-II immunoblotting; type: cell-based, mouse
Procedure: Total cell lysates were prepared in RIPA lysis buffer (Beyotime Biotechnology) supplemented with 1 mM PMSF and 1× protease inhibitor cocktail (Yeasen), and nuclear protein was extracted by nuclear protein extraction kit (Solarbio) in accordance with the manufacturer’s instructions. The samples were separated by SDS-PAGE and transferred to the PVDF membrane (Millipore). The membranes were incubated with the indicated primary antibodies at 4 °C overnight and then incubated with an HRP-conjugated anti-rabbit IgG antibody (Cell Signaling, Cat# 7074, 1:5000) or anti-mouse IgG antibody (Cell Signaling, Cat# 7076, 1:5000) at room temperature for 1 h. The signal was visualized by using the NcmECL Ultra kit (New Cell & Molecular Biotech) and then was exposed by using MiniChemi (SageCreation).
(§8) Supplementary Fig. 3. […] (a) L929 cells were pretreated for
(§9) 4 h with DMSO or the indicated doses of XQ2, followed by stimulation with dsDNA for 4 h, and then cell lysates were
(§10) (b) Jurkat cells were exposed to the indicated doses of XQ2, and then stimulated with
(§11) Data are representative of three independent experiments in (a, b). (Data are presented as mean ± SD, n = 3 independent
(§12) provided as a Source Data file.
(§13) (1 picture or pasted object on this page, not shown here)

Jurkat cells = tested on: Jurkat cells
Procedure: as §1, §8, §9, §10, §11, §12, §13

HSV-1 in THP1 cells = test: HSV-1(UL5) mRNA by qPCR (virus infection of cells); type: cell-based, herpes simplex virus-1; set-up: key to HSV-1(UL5) mRNA, qPCR, Fig. 5d / HSV-1(UL5) mRNA (Fig. S8e): relative mRNA level, target CT normalized to GAPDH CT
Procedure: The indicated cells were stimulated with either ISD (Sangon Biotech), HSV-1 (Provided by Dr. Zhengfan Jiang), HSV60mer (Sangon Biotech), SATE-cddA[70], 2’3’-cGAMP (Invivogen, Cat# tlrl-nacga23-1), ADU-S100 (MedChemExpress, Cat# HY-12885A) or Poly(I:C) (Invivogen, Cat# tlrl-pic) after XQ2 or XQ2B treatment. Total RNA was isolated from indicated cells that incubated with the drugs for indicated time or mice tissues by using NucleoZOL reagent (MACHEREY-NAGEL) according to the manufacturer’s instructions. The quantifications of mRNA levels were carried out by real-time PCR using a PerfectStart® Uni RT&qPCR Kit (TransGen Biotech) on the QuantStudio 5 qPCR machine (Applied Biosystems). Samples were carried out in triplicate and the target CT values were normalized to GAPDH CT values. Primers of qPCR used in this study can be found in Supplementary Table S2.

[2] = Solubility in water (spectrophotometer at 280nm, turbidity); details: water
Procedure: Supplementary Fig. 7. […] (a) THP1 cells were exposed to the indicated doses of XQ2 or XQ2B for 48h. The cell viability was measured by CCK8 assay. (b) The comparison of solubility of XQ2 and XQ2B. The maximum concentration of XQ2 or XQ2B dissolved in water was measured by a spectrophotometer at 280nm. […]
as §7

CC(C)C[C@@H]1NC(=O)[C@H](CCCNC(=N)N)NC(=O)[C@H](C(C)C)NC(=O)[C@@H]2CCCN2C(=O)[C@@H](Cc2ccccc2)NC(=O)[C@H](CC(C)C)NC(=O)[C@H](CCCNC(=N)N)NC(=O)[C@H]([C@@H](C)O)NC(=O)[C@H](C)NC(=O)[C@@H](Cc2ccccc2)NC1=O [XQ2B] (cyclo([dF]ATRL[dF]PVRL))
IFNB1 mRNA level (Fig. S7c) [1]: 7.282 and 8.679 and 8.662
viability at 48 h, 0.195312 µM (in vitro): 100%
viability at 48 h, 0.390625 µM (in vitro): 98%
viability at 48 h, 0.78125 µM (in vitro): 101%
viability at 48 h, 1.5625 µM (in vitro): 108%
viability at 48 h, 3.125 µM (in vitro): 97.6%
viability at 48 h, 6.25 µM (in vitro): 113%
viability at 48 h, 12.5 µM (in vitro): 100%
viability at 48 h, 25 µM (in vitro): 104%
viability at 48 h, 50 µM (in vitro): 68.2%
viability at 48 h, 100 µM (in vitro): 3.61%
viability at 48 h, 200 µM (in vitro): 3.63%
viability at 48 h, 400 µM (in vitro): 3.62%
cytotoxicity (THP1 cells): less cytotoxicity
IC50 (THP1 cells; 48 h): 89.5 ± 31.9 µM
Cell viability (Fig. S7a) (THP1 cells; 48 h, 0.195312 µM): 104.965
Cell viability (Fig. S7a) (THP1 cells; 48 h, 0.390625 µM): 103.952
Cell viability (Fig. S7a) (THP1 cells; 48 h, 100 µM): 3.53
Cell viability (Fig. S7a) (THP1 cells; 48 h, 200 µM): 3.549
Cell viability (Fig. S7a) (THP1 cells; 48 h, 400 µM): 3.541
ISD-induced autophagy, LC3-II formation (L929 cells): markedly reduced ISD-induced autophagy and cell death
ISD-induced cell death (Jurkat cells): markedly reduced ISD-induced autophagy and cell death
HSV-1 infection of THP1 cells, HSV1(UL5) mRNA (HSV-1 in THP1 cells; 10 μM): facilitated HSV-1 infection
HSV-1(UL5) mRNA (Fig. S8e) (HSV-1 in THP1 cells; HSV-1(1×104) 24h): 2.313 and 2.598 and 2.002
HSV-1(UL5) mRNA (Fig. S8e) (HSV-1 in THP1 cells; HSV-1(2×104) 24h): 4.745 and 4.808 and 4.905
Concentration (solubility, Fig. S7b) [2]: 2890 µg/mL and 2940 µg/mL
solubility [2]: higher solubility compared to XQ2
solubility ([2]; Concentration (solubility, Fig. S7b)): 2850 µg/mL (≈ 2370 µM)
